From article PMC9600589, “The Heptaprenyl Diphosphate Synthase (Coq1) Is the Target of a Lipophilic Bisphosphonate That Protects Mice against Toxoplasma gondii Infection” (mBio, 2022)

Columns and labels:
[1] = test system: T. cruzi; design: method as in PMID 24789335; details: cited from earlier work
[2] = test system: hTERT cells; experiment: Cytotoxicity to hTERT cells (alamarBlue); details: for % Inhibition (cytotoxicity): hTERT cells
Experimental: The cytotoxicity was tested using an alamarBlue assay as described by Recher et al. ([67]).

[3] = test system: T. gondii RH-cLuc-GFP; experiment: Dissemination of infection, luciferase-expressing RH parasites, in vivo imaging; design: species or system Swiss Webster mice; details: 1 mg/kg single daily dose for 8 days
From the text: (§1) At this point, live mice were inoculated with δ-luciferin for visualization of the infection in an IVIS illumination system ([34]).

[4] = test system: T. gondii RH parental strain; experiment: Plaque assay measuring growth reversibility after drug removal; format: cell-based, Toxoplasma gondii; details: 7 days with 1 μM or 2 μM, then 7 days without drug
[5] = test system: T. gondii RH strain; experiment: Acute lethal infection of mice with RH tachyzoites; format: in vivo, Swiss Webster mice; details: mice infected with 100 RH tachyzoites, intraperitoneal, daily for 10 days from 6 h postinfection
Experimental: as §1
Experiments were carried out as described previously ([49]) using 100 T. gondii tachyzoites of the RH strain to infect Webster mice. Drugs were dissolved in 10% kolliphor HS 15 and were inoculated intraperitoneally. Treatment was initiated 6 h after infection and administered daily for 10 days.

Q: For `CCCCCCCCCCn1cc[n+](CC(P(=O)([O-])O)P(=O)(O)O)c1` (stereo not shown) [BPH-1218], which “decrease in UQ9 biosynthesis” value [1] is on record?
A: 40%

Q: And the “toxicity against human fibroblast cells” value [2]?
A: very little toxicity

Q: What about the “% Inhibition (cytotoxicity)” value ([2]; at 4X EC50 (concentration in μM in brackets)) of the same compound?
A: 4.30 ± 2.31%

Q: And the “% Inhibition (cytotoxicity)” value ([2]; at 10X EC50 (concentration in μM in brackets))?
A: 10.28 ± 1.07%

Q: And the “effect on virulence and dissemination of the infection” value [3]?
A: remarkable effect on both virulence and dissemination of the infection

Q: What about the “reversibility of growth inhibition after drug removal” value [4] of the same compound?
A: irreversible

Q: What about the ED50 [5] of the same compound?
A: 0.69 mg/kg/day
